Results from the NIST ThermoML archive (doi:10.1016/j.jct.2015.03.001).

Legend:
[1] = refractive index (Na D-line) (dimensionless); xn = mol fraction of the nth substance listed; conditions: 99 kPa, Liquid, Abbe refractometer
[2] = relative permittivity at various frequencies (dimensionless); xn = mol fraction of the nth substance listed; conditions: 99 kPa, Liquid, Frequency=2 MHz, Parallel plate capacitor

CCC(C)Cl (configuration not stated) [2-chlorobutane] + CCCCCCC
Conditions	refractive index, 283.15 K	refractive index, 298.15 K	refractive index, 313.15 K	relative permittivity, 283.15 K	relative permittivity, 298.15 K	relative permittivity, 313.15 K
[1], x2 = 0	1.40226	1.39404	1.38562	–	–	–
[1], x2 = 0.0483	1.40141	1.39319	1.3848	–	–	–
[1], x2 = 0.1024	1.40056	1.39238	1.38401	–	–	–
[1], x2 = 0.2021	1.39912	1.391	1.38268	–	–	–
[1], x2 = 0.303	1.39778	1.3897	1.38144	–	–	–
[1], x2 = 0.4031	1.3966	1.38859	1.38038	–	–	–
[1], x2 = 0.5066	1.39562	1.38765	1.37951	–	–	–
[1], x2 = 0.5998	1.39489	1.38699	1.3789	–	–	–
[1], x2 = 0.7051	1.39429	1.38642	1.37841	–	–	–
[1], x2 = 0.8055	1.39382	1.38603	1.37807	–	–	–
[1], x2 = 0.9123	1.39337	1.38563	1.37773	–	–	–
[1], x2 = 0.9433	1.39322	1.38549	1.37761	–	–	–
[2], x2 = 0	–	–	–	9.323	8.652	8.07
[2], x2 = 0.0498	–	–	–	8.838	8.22	7.684
[2], x2 = 0.101	–	–	–	8.296	7.73	7.247
[2], x2 = 0.1985	–	–	–	7.191	6.75	6.373
[2], x2 = 0.3008	–	–	–	6.131	5.792	5.51
[2], x2 = 0.3994	–	–	–	5.252	5	4.774
[2], x2 = 0.503	–	–	–	4.471	4.283	4.1
[2], x2 = 0.6009	–	–	–	3.84	3.698	3.56
[2], x2 = 0.7053	–	–	–	3.268	3.165	3.063
[2], x2 = 0.8026	–	–	–	2.79	2.731	2.659
[2], x2 = 0.9027	–	–	–	2.352	2.309	2.276
[2], x2 = 0.9463	–	–	–	2.164	2.133	2.108
